Source: patent US20210161174A1, “FEED ADDITIVE FOR FARMED ANIMALS” (ADISSEO FRANCE S.A.S., priority 2018, published 2021)
Marks after values point to notes of the source that are not given here.

Experiments:
[1] = Example 2: carcass, abdominal fat and yields of commercial cuts at 42 d; type: in vivo, Broiler Chicken (Cobb 500); conditions: for Abdominal fat yield / Breast fillets yield / Breast tenders yield / Drumsticks yield / Thighs yield / Wings yield: proportion of the carcass
Excerpt: Study Animals: • Animal: Broiler Chicken • Breed/Strain: Cobb 500 • Description: Day-of-hatch male chicks, sexed at hatchery • Sex: Male
Processing: On day […] (12) birds are selected from each pen for processing (at 12 reps/trt: 576 birds in total; 144 birds/trt)
Dietary Treatments • Control (NC, negative control without PQQ) • 0.2 ppm PQQ • 0.5 ppm PQQ • 1 ppm PQQ

[2] = Example 2: broiler performance (body weight gain, feed intake, FCR), PQQ in diet, 0 to 42 days; type: in vivo, Broiler Chicken (Cobb 500)
Excerpt: Study Animals: • Animal: Broiler Chicken • Breed/Strain: Cobb 500 • Description: Day-of-hatch male chicks, sexed at hatchery • Sex: Male Total number of treatments: 4 Total number of replicates per treatment: 12 Total number of chicks per replicate: […] Initial age: day-of-hatch: 0 days-of-age Final age: 6 weeks: 42 days-of-age. Feed will be changed based on the days of each phase. • Starter feed will be weighed out and fed from day 0 to 7. • Grower feed will be weighed, issued and fed from day 8 until 21. • Finisher feed will be weighed, issued and fed from day 22 until 35. • Withdraw feed will be weighed, issued and fed from day 36 until 42. Performance: Feed consumption and pen weights are determined on days 0, 21, 35 and 42 to calculate average body weight (BW), body weight gain (BWG) and feed conversion ratio (FCR). Final bird weights: At the end of the grow-out period (Day 42), all birds are weighed, as well as any and all remaining feed. Randomized Complete Block Design with 4 treatments×12 replicates/treatment (40 birds/pen), randomized within blocks across the barn to minimize differences in environmental condition. The pen is the experimental unit. Dietary Treatments • Control (NC, negative control without PQQ) • 0.2 ppm PQQ • 0.5 ppm PQQ • 1 ppm PQQ The results are presented in tables 5 to 13 below for broilers fed diets from 0 to 42 days (d) of age. The values given are the mean and the P value.

## O=C(O)c1cc(C(=O)O)c2c(n1)C(=O)C(=O)c1cc(C(=O)O)[nH]c1-2 [PQQ, pyrroloquinoline quinone]
[1]; 0.2 ppm PQQ
  Abdominal fat weight: 26 g
  Breast fillets weight: 680 g
  Breast tenders weight: 127ab g
  Carcass yield (eviscerated carcass as a percentage of body weight): 80.3^b %
  Drumsticks weight: 467 g
  Thighs weight: 364 g
  Wings weight: 258 g
  Abdominal fat yield: 1.05%
  Breast fillets yield: 26.8%
  Breast tenders yield: 5.03^b %
  Drumsticks yield: 18.42^b %
  Thighs yield: 14.36^ab %
  Wings yield: 10.19^ab %
[1]; 0.5 ppm PQQ
  Abdominal fat weight: 28 g
  Breast fillets weight: 677 g
  Breast tenders weight: 129ab g
  Carcass yield (eviscerated carcass as a percentage of body weight): 80.4^b %
  Drumsticks weight: 473 g
  Thighs weight: 378 g
  Wings weight: 258 g
  Abdominal fat yield: 1.11%
  Breast fillets yield: 26.8%
  Breast tenders yield: 5.12^ab %
  Drumsticks yield: 18.73^ab %
  Thighs yield: 15.01^a %
  Wings yield: 10.42^a %
[1]; 1.0 ppm PQQ
  Abdominal fat weight: 23 g
  Breast fillets weight: 702 g
  Breast tenders weight: 134a g
  Carcass yield (eviscerated carcass as a percentage of body weight): 80.3^b %
  Drumsticks weight: 486 g
  Thighs weight: 366 g
  Wings weight: 259 g
  Abdominal fat yield: 0.90%
  Breast fillets yield: 27.4%
  Breast tenders yield: 5.22^a %
  Drumsticks yield: 18.89^a %
  Thighs yield: 14.24^b %
  Wings yield: 10.05^ab %
[2]; 0.2 ppm PQQ (T2), 1 t1o 42 d
  Cumulative feed intake of broilers: 5365 g
[2]; 0.2 ppm PQQ (T2), 1 to1 21 d
  Cumulative feed intake of broilers: 835 g
[2]; 0.2 ppm PQQ (T2), 1 to 7 d
  feed intake of broilers: 158 g
[2]; 0.2 ppm PQQ (T2), 1 to 21 d
  cumulative body weight gain of broilers: 624 g
  cumulative feed conversion ratio of broilers: 1.355
[2]; 0.2 ppm PQQ (T2), 1 to 35 d
  cumulative body weight gain of broilers: 2125 g
  cumulative feed conversion ratio of broilers: 1.494
[2]; 0.2 ppm PQQ (T2), 1 to 42 d
  cumulative body weight gain of broilers: 3204 g
  cumulative feed conversion ratio of broilers: 1.674
[2]; 0.2 ppm PQQ (T2), 8 to 21 d
  feed intake of broilers: 677 g
[2]; 0.2 ppm PQQ (T2), 11 to 35 d
  Cumulative feed intake of broilers: 3173 g
[2]; 0.2 ppm PQQ (T2), 22 to 35 d
  feed intake of broilers: 2346 g
[2]; 0.2 ppm PQQ (T2), 36 to 42 d
  feed intake of broilers: 2218 g
[2]; 0.5 ppm PQQ (T3), 1 t1o 42 d
  Cumulative feed intake of broilers: 5316 g
[2]; 0.5 ppm PQQ (T3), 1 to1 21 d
  Cumulative feed intake of broilers: 853 g
[2]; 0.5 ppm PQQ (T3), 1 to 7 d
  feed intake of broilers: 156 g
[2]; 0.5 ppm PQQ (T3), 1 to 21 d
  cumulative body weight gain of broilers: 608 g
  cumulative feed conversion ratio of broilers: 1.402
[2]; 0.5 ppm PQQ (T3), 1 to 35 d
  cumulative body weight gain of broilers: 2123 g
  cumulative feed conversion ratio of broilers: 1.526
[2]; 0.5 ppm PQQ (T3), 1 to 42 d
  cumulative body weight gain of broilers: 3166 g
  cumulative feed conversion ratio of broilers: 1.675
[2]; 0.5 ppm PQQ (T3), 8 to 21 d
  feed intake of broilers: 699 g
[2]; 0.5 ppm PQQ (T3), 11 to 35 d
  Cumulative feed intake of broilers: 3236 g
[2]; 0.5 ppm PQQ (T3), 22 to 35 d
  feed intake of broilers: 2390 g
[2]; 0.5 ppm PQQ (T3), 36 to 42 d
  feed intake of broilers: 2105 g
[2]; 1.0 ppm PQQ (T4), 1 t1o 42 d
  Cumulative feed intake of broilers: 5449 g
[2]; 1.0 ppm PQQ (T4), 1 to1 21 d
  Cumulative feed intake of broilers: 905 g
[2]; 1.0 ppm PQQ (T4), 1 to 7 d
  feed intake of broilers: 159 g
[2]; 1.0 ppm PQQ (T4), 1 to 21 d
  cumulative body weight gain of broilers: 630 g
  cumulative feed conversion ratio of broilers: 1.429
[2]; 1.0 ppm PQQ (T4), 1 to 35 d
  cumulative body weight gain of broilers: 2178 g
  cumulative feed conversion ratio of broilers: 1.540
[2]; 1.0 ppm PQQ (T4), 1 to 42 d
  cumulative body weight gain of broilers: 3188 g
  cumulative feed conversion ratio of broilers: 1.708
[2]; 1.0 ppm PQQ (T4), 8 to 21 d
  feed intake of broilers: 747 g
[2]; 1.0 ppm PQQ (T4), 11 to 35 d
  Cumulative feed intake of broilers: 3357 g
[2]; 1.0 ppm PQQ (T4), 22 to 35 d
  feed intake of broilers: 2459 g
[2]; 1.0 ppm PQQ (T4), 36 to 42 d
  feed intake of broilers: 2113 g
[2]; each concentration (0.2, 0.5, 1.0 ppm)
  influence on the body weight: positive influence
